Patent publication US10155990B2, “Method for predicting therapeutic efficacy of PI3K/AKT/mTOR inhibitor on basis of PHLDA1 or PIK3C2B expression” (Taiho Pharmaceutical Co., Ltd., priority 2013, dated 2018)

Tests used:
Format in all cases: cell-based
[1] = test system: panel of 240 cell lines composed of various cancers; test: GI50 versus PHLDA1/PIK3C2B expression in a panel of 240 cell lines (OncoPanel, Ricerca Biosciences); details: panel of 240 cell lines of various cancers
Excerpt: It was also examined whether the expression level of PHLDA1 or PIK3C2B has a correlation with the sensitivity to PI3K/AKT/mTOR inhibitors in a panel of 240 cell lines (OncoPanel™, Ricerca Biosciences) composed of various cancers such as lung cancer, kidney cancer, liver cancer, pancreatic cancer, large bowel cancer, bladder cancer, breast cancer, head and neck cancer, prostate cancer, skin cancer, blood cancer, and malignant lymphoma.

[2] = test system: 37 cell lines from human breast cancer; test: Cytotoxicity assay (CellTiter-Glo, GI50) in 37 human breast cancer cell lines, related to PHLDA1/PIK3C2B expression, PIK3CA mutation, PTEN deletion
Procedure: A cytotoxicity assay was conducted as described below using 37 cell lines from human breast cancer (AU565, BT20, BT474, BT549, CAMA-1, DU4475, HCC1187, HCC1419, HCC1428, HCC1500, HCC1569, HCC1599, HCC1806, HCC1937, HCC1954, HCC202, HCC2218, HCC38, HCC70, MDA-MB-157, MDA-MB-175, MDA-MB-231, MDA-MB-361, MDA-MB-415, MDA-MB-436, MDA-MB-453, MDA-MB-468, UACC-812, and UACC-893 (all obtained from American Type Culture Collection (ATCC); MCF-7, SK-BR-3, T47D, and ZR-75-1 (all obtained from Sumitomo Dainippon Pharma Co., Ltd.); KPL-1, KPL-3C, and KPL-4 (provided by Dr. Kurebayashi at Kawasaki Medical School)). Each cell line was seeded into a 96-well flat-bottom microplate in an amount of 150 μL, and cultured in an incubator containing 5% carbon dioxide gas at 37° C. for one day. PI3K/AKT/mTOR inhibitors (AKT inhibitor: Compound-I, MK-2206, PI3K-mTOR dual inhibitor: BEZ235, PI3K inhibitor: GDC-0941, mTOR inhibitor: sirolimus) diluted stepwise with dimethylsulfoxide, paclitaxel diluted stepwise with dimethylsulfoxide, and dimethylsulfoxide were individually added to respective media for the cell lines. 50 μL of each of the media was added to the wells of the aforementioned 96-well flat-bottom microplate so that the final concentration of each drug became 10,000, 3,000, 1,000, 300, 100, 30, 3, and 1 nM. A separately prepared 96-well flat-bottom microplate in which each cell line was cultured for one day was allowed to stand at room temperature for 30 minutes, and 50 μL of the supernatant was removed from each well to leave 100 μL of the cell culture solution. […] The microplate was allowed to stand in a dark place for 10 minutes, and then the luminescence intensity of live cells of each well to which the drug were added was measured using a microplate reader (PerkinElmer, ARVOsx). […] The microplate was allowed to stand in a dark place for 10 minutes, and then the luminescence intensity of live cells of each well was measured using a microplate reader. […]
Subsequently, the expression level of PHLDA1 and PIK3C2B in the 37 cell lines from human breast cancer was measured. […]

[3] = test system: human ovarian cancer cell line OVCAR-3; test: Cytotoxicity after PIK3C2B gene knockdown, OVCAR-3; details: relative cell count after three days, FIG. 3
[4] = test system: human breast cancer cell line HCC1187; test: Cytotoxicity after PIK3C2B gene knockdown, HCC1187; details: relative cell count after three days, FIG. 3
[5] = 37 human breast cancer cell lines, 3 days drug exposure, FIG. 1

Correlation between logarithm of GI50 and logarithm of expression level of PHLDA1 [1]	Correlation between logarithm of GI50 and logarithm of expression level of PIK3C2B [1]	SMILES	Correlation of PTEN deletion with sensitivity (GI50) ([2]; 36 cell lines, PTEN deletion in 8 cell lines, FIG. 4)	Change in sensitivity to drug caused by PIK3C2B gene knockdown [3]	Change in sensitivity to drug caused by PIK3C2B gene knockdown [4]	Pearson correlation between logarithm of GI50 and logarithm of expression level of PHLDA1 [2, 5]	Pearson correlation between logarithm of GI50 and logarithm of expression level of PIK3C2B [2, 5]
significant correlation	significant correlation	Cn1c(=O)n(-c2ccc(C(C)(C)C#N)cc2)c2c3cc(-c4cnc5ccccc5c4)ccc3ncc21 [BEZ235, dactolisib]	–	–	–	–	–
significant correlation	significant correlation	CC1(O)CC(N)(c2ccc(-c3nc4n(c3-c3ccccc3)COc3ccncc3-4)cc2)C1 (stereo not drawn) [Compound-I, trans-3-amino-1-methyl-3-(4-(3-phenyl-5H-imidazo[1,2-c]pyrido[3,4-e][1,3]oxazin-2-yl)phenyl)cyclobutanol]	did not show a correlation	decrease in sensitivity	decrease in sensitivity	–	–
significant correlation	significant correlation	CS(=O)(=O)N1CCN(Cc2cc3nc(-c4cccc5[nH]ncc45)nc(N4CCOCC4)c3s2)CC1 [GDC-0941, pictilisib]	–	decrease in sensitivity	decrease in sensitivity	–	–
significant correlation	significant correlation	NC1(c2ccc(-c3nc4ccn5c(=O)[nH]nc5c4cc3-c3ccccc3)cc2)CCC1 [MK-2206]	–	–	–	–	–
–	–	CC(=O)O[C@H]1C(=O)[C@@]2(C)[C@H]([C@H](OC(=O)c3ccccc3)[C@]3(O)C[C@H](OC(=O)[C@H](O)[C@@H](NC(=O)c4ccccc4)c4ccccc4)C(C)=C1C3(C)C)[C@]1(OC(C)=O)CO[C@@H]1C[C@@H]2O [paclitaxel]	–	almost no change	almost no change	did not show a correlation	did not show a correlation
